Among the data in ChEMBL document CHEMBL5543169, “Exploring Subsite Selectivity within Plasmodium vivax N-Myristoyltransferase Using Pyrazole-Derived Inhibitors” (J Med Chem, 2024) are IC50 values, retold here.

The structures appear in SMILES notation.

The term IC50 denotes the concentration needed to halve the response being measured.

Experiment [1] is described as follows: Inhibition of Plasmodium vivax NMT.
Experiment [2] in a line: Inhibition of N-terminal 6His-tagged Plasmodium vivax NMT (27 to 410 residues) expressed in Escherichia coli Rosetta 2 (DE3) cells preincubated for 30 mins followed by myrCoA, PfARF and CPM addition by fluorescence based plate reader assay.

As for `O=C(c1cccc(NCc2cc(-c3ccc(Cl)cc3)c[nH]c2=O)c1)N1CCOCC1`, the half-inhibitory concentration (IC50) in experiment [1] came out at 3400 nM.

In experiment [2], `Cc1c(CCOc2ccc3ccccc3c2-c2ccnc(N3CCNCC3)c2)c(C(=O)NCC(N)=O)nn1C` gave an IC50 of 5070 nM.

On to `Cc1nn(C)c(C)c1CCOc1cccnc1-c1cccc(N2CCNCC2)c1`, for which the half-maximal inhibitory concentration (IC50) in experiment [2] amounted to 80.2 nM.

Turning to `Cc1c(CCOc2ccc3ccccc3c2-c2ccnc(N3CCNCC3)c2)c(C(=O)Nc2cccnc2)nn1C`, the IC50 in experiment [2] came out at 1000 nM.
